{"source": "patent US20120328569A1", "about": "“INHIBITORS OF HEPATITIS C VIRUS NS5B POLYMERASE” (priority 2010, published 2012)", "data": [{"test_system": "HCV genotype 1b replicon", "assay": "HCV replicon assay, cell ELISA with antibody to replicon-encoded NS3/4A (genotype 1b replicon)", "assay_type": "cell-based, hepatitis C virus", "conditions": "Hepatitis C virus, 96 h, read-out: 1b IC50(nM), HCV genotype 1b replicon; 96 hours incubation; NS3/4A cell ELISA", "procedure,_shortened": "(§1)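 An ELISA on lysed cells, using an antibody against NS3/4A protease, served as the proxy for replicon RNA. Cells had first been exposed for 96 h to serially diluted compound in G418-free conditions. Percent of DMSO control was fitted with a four-parameter function to give IC50.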", "units": {"IC50": "nM"}, "values": [{"smiles": "CNC(=O)c1c(-c2ccc(F)cc2)oc2cc(N(C)S(C)(=O)=O)c(-c3ccc(OC)c(-c4cc5cc(F)ccc5[nH]4)c3)cc12", "note": "[Example 860]", "IC50": 1.9}, {"smiles": "CNC(=O)c1c(-c2ccc(F)cc2)oc2cc(N(C3CCOC3)S(C)(=O)=O)c(-c3ccc(OC)c(-c4nc5c(F)cccc5o4)c3)cc12", "note": "(centres unmarked) [Example 726]", "IC50": 5.54}, {"smiles": "CNC(=O)c1c(-c2ccc(F)cc2)oc2cc(N(C)S(C)(=O)=O)c(-c3ccc(OC)c(-c4nc5c(F)cccc5o4)c3)cc12", "note": "[Example 411, 5-[3-(4-Fluoro-benzooxazol-2-yl)-4-methoxy-phenyl]-2-(4-fluoro-phenyl)-6-(methanesulfonyl-methyl-amino)-benzofuran-3-carboxylic acid methylamide]", "IC50": 7.1}, {"smiles": "CNC(=O)c1c(-c2ccc(F)cc2)oc2cc(N(CC(O)Cn3ccnc3)S(C)(=O)=O)c(-c3ccc(OC)c(-c4nc5c(F)cccc5o4)c3)cc12", "note": "(centres unmarked) [Example 825]", "IC50": 8.88}, {"smiles": "CNC(=O)c1c(-c2ccc(F)cc2)oc2cc(N(C)S(C)(=O)=O)c(-c3ccc(S(C)(=O)=O)c(-c4nc5c(Cl)cccc5o4)c3)cc12", "note": "[Example 420]", "IC50": 5.08}, {"smiles": "CNC(=O)c1c(-c2ccc(F)cc2)oc2cc(N(C3CC(C#N)C3)S(C)(=O)=O)c(-c3ccc(OC)c(-c4nc5c(F)cccc5o4)c3)cc12", "note": "(centres unmarked) [Example 740]", "IC50": 4.76}, {"smiles": "CNC(=O)c1c(-c2ccc(F)cc2)oc2cc(N(CC3CCOC3)S(C)(=O)=O)c(-c3ccc(OC)c(-c4nc5c(F)cc(F)cc5o4)c3)cc12", "note": "(centres unmarked) [Example 729]", "IC50": 3.3}, {"smiles": "CNC(=O)c1c(-c2ccc(F)cc2)oc2cc(N(CC(C)(C)O)S(C)(=O)=O)c(-c3ccc(OC)c(-c4nc5c(F)cccc5o4)c3)cc12", "note": "[Example 779]", "IC50": 8.28}, {"smiles": "CNC(=O)c1c(-c2ccc(F)cc2)oc2cc(N(C)S(C)(=O)=O)c(-c3cc(OS(C)(=O)=O)cc(-c4nc5c(F)cccc5o4)c3)cc12", "note": "[Example 627]", "IC50": 1.4}, {"smiles": "CNC(=O)c1c(-c2ccc(F)cc2)oc2cc(N(C3CN(C(=O)[C@@H](NC(=O)OC)C(C)C)C3)S(C)(=O)=O)c(-c3ccc(OC)c(-c4nc5c(F)cccc5o4)c3)cc12", "note": "[Example 834]", "IC50": 11.5}, {"smiles": "CNC(=O)c1c(-c2ccc(F)cc2)oc2cc(N(CCC(C)(C)O)S(C)(=O)=O)c(-c3cccc(-c4nc5ncccc5o4)c3)cc12", "note": "[Example 859]", "IC50": 2.1}, {"smiles": "CNC(=O)c1c(-c2ccc(F)cc2)oc2cc(N(CC3CC3)S(C)(=O)=O)c(-c3ccc(OC)c(-c4nc5cc(F)cc(F)c5o4)c3)cc12", "note": "[Example 706]", "IC50": 16.7}, {"smiles": "CNC(=O)c1c(-c2ccc(F)cc2)oc2cc(N(CC3CC3)S(C)(=O)=O)c(-c3ccc(OC)c(-c4nc5c(F)cc(F)cc5o4)c3)cc12", "note": "[Example 705]", "IC50": 15.6}, {"smiles": "CNC(=O)c1cc(-c2nc3c(F)cccc3o2)cc(-c2cc3c(C(=O)NC)c(-c4ccc(F)cc4)oc3cc2N(C)S(C)(=O)=O)c1", "note": "[Example 654]", "IC50": 3.65}, {"smiles": "CNC(=O)c1c(-c2ccc(F)cc2)oc2cc(N(C)S(C)(=O)=O)c(-c3ccc(OC)c(-c4nc5c(C(=O)Nc6ccccc6)cccc5o4)c3)cc12", "note": "[Example 638]", "IC50": 29.8}, {"smiles": "CNC(=O)c1c(-c2ccc(F)cc2)oc2cc(N(C)S(C)(=O)=O)c(-c3ccc(OC)c(-c4nc5c(CC#N)cccc5[nH]4)c3)cc12", "note": "[Example 427]", "IC50": 4.35}]}, {"test_system": "HCV genotype 1b replicon", "assay": "HCV replicon assay, cell ELISA with antibody to replicon-encoded NS3/4A (genotype 1b replicon)", "assay_type": "cell-based, hepatitis C virus", "conditions": "Hepatitis C virus, 96 h, read-out: Replicon 1b IC50 (nM), HCV genotype 1b replicon cells, 96 hours incubation, NS3/4A ELISA readout", "procedure,_shortened": "as §1", "units": {"IC50": "nM"}, "values": [{"smiles": "CNC(=O)c1c(-c2ccc(F)cc2)oc2cc(N(C)S(C)(=O)=O)c(-c3ccc(OC)c(-c4nc5cccc(C#N)c5o4)c3)cc12", "note": "[Example 407]", "IC50": 2.8}, {"smiles": "CNC(=O)c1c(-c2ccc(F)cc2)oc2cc(N(C)S(C)(=O)=O)c(-c3cccc(-c4nc5ccc(NS(C)(=O)=O)cc5o4)c3)cc12", "note": "[Example 281, 2-(4-fluorophenyl)-N-methyl-6-(N-methylmethylsulfonamido)-5-(3-(6-(methylsulfonamido)benzo[d]oxazol-2-yl)phenyl)benzofuran-3-carboxamide]", "IC50": 3.3}, {"smiles": "CNC(=O)c1c(-c2ccc(F)cc2)oc2cc(N(CCN(C)Cc3ccccc3)S(C)(=O)=O)c(-c3ccccc3)cc12", "note": "[Example 124, 6-[{2-[benzyl(methyl)amino]ethyl} (methylsulfonyl)amino]-2-(4-fluorophenyl)-N-methyl-5-phenyl-1-benzofuran-3-carboxamide]", "IC50": "> 10000"}, {"smiles": "CNC(=O)c1c(-c2ccc(F)cc2)oc2cc(N(C)S(C)(=O)=O)c(-c3cccc(-c4nc5cccnc5[nH]4)c3)cc12", "note": "[Example 299, 5-(3-(3H-imidazo[4,5-b]pyridin-2-yl)phenyl)-2-(4-fluorophenyl)-N-methyl-6-(N-methylmethylsulfonamido)benzofuran-3-carboxamide]", "IC50": 3.3}, {"smiles": "CNC(=O)c1c(-c2ccc(F)cc2)oc2cc(N(C)S(C)(=O)=O)c(-c3cccc(-c4nc5cccnc5o4)c3)cc12", "note": "[Example 217]", "IC50": 2.1}, {"smiles": "CNC(=O)c1c(-c2ccc(F)cc2)oc2cc(N(C)S(C)(=O)=O)c(-c3cccc(-c4nc5c(F)cccc5[nH]4)c3)cc12", "note": "[Example 304]", "IC50": 1.3}, {"smiles": "CNC(=O)c1c(-c2ccc(F)cc2)oc2cc(N(C)S(C)(=O)=O)c(-c3cccc(-c4nc5cc(Cl)ccc5o4)c3)cc12", "note": "[Example 170]", "IC50": 5.2}, {"smiles": "CNC(=O)c1c(-c2ccc(F)cc2)oc2cc(N(C)S(C)(=O)=O)c(-c3cc(C#N)cc(-c4nc5cccnc5[nH]4)c3)cc12", "note": "[Example 323]", "IC50": 2.4}, {"smiles": "CNC(=O)c1c(-c2ccc(F)cc2)oc2cc(N(C)S(C)(=O)=O)c(-c3cccc(-c4nc5ccncc5[nH]4)c3)cc12", "note": "[Example 333]", "IC50": 6}, {"smiles": "CNC(=O)c1c(-c2ccc(F)cc2)oc2cc(N(C)S(C)(=O)=O)c(-c3cc(F)cc(-c4nc5cccnc5[nH]4)c3)cc12", "note": "[Example 305]", "IC50": 1.1}, {"smiles": "CNC(=O)c1c(-c2ccc(F)cc2)oc2cc(N(C)S(C)(=O)=O)c(-c3cc(OC)c(OC)c(-c4nc5ccccc5o4)c3)cc12", "note": "[Example 182]", "IC50": 2.3}, {"smiles": "CNC(=O)c1c(-c2ccc(F)cc2)oc2cc(N(CCCCC#N)S(C)(=O)=O)c(-c3cccc(-c4nc5ncccc5o4)c3)cc12", "note": "[Compound 394]", "IC50": 1.4}, {"smiles": "CNC(=O)c1c(-c2ccc(F)cc2)oc2cc(N(C)S(C)(=O)=O)c(-c3ccc(OC(F)(F)F)c(-c4nc5ncccc5o4)c3)cc12", "note": "[Example 206]", "IC50": 2.1}, {"smiles": "CNC(=O)c1c(-c2ccc(F)cc2)oc2cc(N(C)S(C)(=O)=O)c(-c3cc(C#N)cc(-c4nc5ncccc5o4)c3)cc12", "note": "[Example 209]", "IC50": 5.5}, {"smiles": "CNC(=O)c1c(-c2ccc(F)cc2)oc2cc(N(CCC(C)C)S(C)(=O)=O)c(-c3ccccc3)cc12", "note": "[Example 18, 2-(4-fluorophenyl)-N-methyl-6-[(3-methylbutyl) (methylsulfonyl)amino]-5-phenyl-1-benzofuran-3-carboxamide]", "IC50": 41}, {"smiles": "CNC(=O)c1c(-c2ccc(F)cc2)oc2cc(N(C)S(C)(=O)=O)c(-c3cccc(-c4nc5c(C)cccc5o4)c3)cc12", "note": "[Example 173]", "IC50": 5.6}, {"smiles": "CNC(=O)c1c(-c2ccc(F)cc2)oc2cc(N(C)S(C)(=O)=O)c(-c3cc(Cl)cc(-c4nc5cccnc5o4)c3)cc12", "note": "[Example 229]", "IC50": 3.7}, {"smiles": "CNC(=O)c1c(-c2ccc(F)cc2)oc2cc(N(C)S(C)(=O)=O)c(-c3cccc(-c4nc5cc(Cl)ccc5s4)c3)cc12", "note": "[Example 148, 5-[3-(5-chloro-1,3-benzothiazol-2-yl)phenyl]-2-(4-fluorophenyl)-N-methyl-6-[methyl (methylsulfonyl)amino]-1-benzofuran-3-carboxamide]", "IC50": 9}, {"smiles": "CNC(=O)c1c(-c2ccc(F)cc2)oc2cc(N(C)S(C)(=O)=O)c(-c3ccc(OC)c(-c4nc5cccc(F)c5o4)c3)cc12", "note": "[Example 186]", "IC50": 2}, {"smiles": "CNC(=O)c1c(-c2ccc(F)cc2)oc2cc(N(C)S(C)(=O)=O)c(-c3cc(F)cc(-c4nc5cc(F)cnc5o4)c3)cc12", "note": "[Example 220]", "IC50": 1.5}, {"smiles": "CNC(=O)c1c(-c2ccc(F)cc2)oc2cc(N(C)S(C)(=O)=O)c(-c3cccc(-c4nc5cccnc5s4)c3)cc12", "note": "[Example 142, 2-(4-fluorophenyl)-N-methyl-6-[methyl (methylsulfonyl)amino]-5-[3-([1,3]thiazolo[5,4-b]pyridin-2-yl)phenyl]-1-benzofuran-3-carboxamide]", "IC50": 1}, {"smiles": "CNC(=O)c1c(-c2ccc(F)cc2)oc2cc(N(C)S(C)(=O)=O)c(-c3cc(Cl)cc(-c4nc5c(F)cccc5o4)c3)cc12", "note": "[Example 406]", "IC50": 15.1}, {"smiles": "CNC(=O)c1c(-c2ccc(F)cc2)oc2cc(N(C3CCCC3)S(C)(=O)=O)c(-c3ccccc3)cc12", "note": "[Example 22, 6-[cyclopentyl (methylsulfonyl)amino]-2-(4-fluorophenyl)-N-methyl-5-phenyl-1-benzofuran-3-carboxamide]", "IC50": 55}, {"smiles": "CNC(=O)c1c(-c2ccc(F)cc2)oc2cc(N(CCCc3ccccc3)S(C)(=O)=O)c(-c3ccccc3)cc12", "note": "[Example 6, 2-(4-fluorophenyl)-N-methyl-6-[(methylsulfonyl) (3-phenylpropyl)amino]-5-phenyl-1-benzofuran-3-carboxamide]", "IC50": 118}, {"smiles": "CONC(=O)c1c(-c2ccc(F)cc2)oc2cc(N(C)S(C)(=O)=O)c(-c3ccc(OC)cc3)cc12", "note": "[Example 98, 2-(4-fluorophenyl)-N-methoxy-5-(4-methoxyphenyl)-6-[methyl (methylsulfonyl)amino]-1-benzofuran-3-carboxamide]", "IC50": 72}, {"smiles": "CNC(=O)c1c(-c2ccc(F)cc2)oc2cc(N(C)S(C)(=O)=O)c(-c3cc(-c4nc5cnccc5o4)ccc3F)cc12", "note": "[Example 214]", "IC50": 6.3}, {"smiles": "CNC(=O)c1cccc(-c2cc3c(C(=O)NC)c(-c4ccc(F)cc4)oc3cc2N(C)S(C)(=O)=O)c1", "note": "[Example 100, 2-(4-fluorophenyl)-N-methyl-5-[3-(methylcarbamoyl)phenyl]-6-[methyl(methylsulfonyl)amino]-1-benzofuran-3-carboxamide]", "IC50": 45}, {"smiles": "CNC(=O)c1c(-c2ccc(F)cc2)oc2cc(N(C)S(C)(=O)=O)c(-c3cccc(CNS(=O)(=O)c4ccccc4)c3)cc12", "note": "[Example 103, 2-(4-fluorophenyl)-N-methyl-6-[methyl(methylsulfonyl)amino]-5-(3-{[(phenylsulfonyl)amino]methyl}phenyl)-1-benzofuran-3-carboxamide]", "IC50": "< 8"}]}]}
